Experimental data: patent publication US6534534B1, “Pharmaceutical composition active in reducing production of MCP-1 protein” (Aziende Chimiche Riunite Angelini Francesco A.C.R.A.F. …, priority 1997, dated 2003)
Like-named read-outs stand apart in the source and are kept apart here.

How the values were obtained:
[1] = test system: MCP-1; settings: for MCP-1: PBMC, LPS 100 ng/ml, 24 hours, supernatant
Method: (§1) The capability of bindarit to reduce production of MCP-1 by leucocytes (PBMC) stimulated by LPS was evaluated. White blood cells were isolated by centrifugation on a Ficoll gradient and then stimulated with LPS (100 ng/ml) for 24 hours in the presence or absence of scalar concentrations of bindarit. The supernatant fluid was collected at the end and levels of MCP-1 were measured by means of a specific immunoenzymatic test.

[2] = test system: IL-8; settings: for IL-8: PBMC, LPS 100 ng/ml, 24 hours, supernatant
Method: as §1

[3] = test system: mouse air pouch; settings: for Exudate / Leucocytes: bindarit 0.5% in diet for 18 days
Method: The action of bindarit was studied in an experimental model in the mouse, the said model being characterized by production of MCP-1, cell infiltration and formation of exudate. Mice were fed ad libitum with a standard diet for rodents or with the same diet with addition of bindarit (0.5%) for 18 days. On the twelfth day, under ether anaesthesia, sterile air (5 ml) was injected under the dorsal skin of the mice to form a sac. On the fifteenth day, again under ether anaesthesia, further sterile air (5 ml) was injected into the pre-formed sac. On the eighteenth day, a sterile physiological solution (1 ml) was injected into the sac thus obtained, or an irritant (1 ml). The said irritant was carrageen (1%) or IL-1 (40 ng). After 5 hours for IL-1, or 24 hours for carrageen, the mice were sacrificed by asphyxia with CO2. The exudate which had developed was collected and used for the leucocyte count and for measurement of the mediators produced.

[4] = IL-1, share of cells in exudate, bindarit 0.5% in diet

## CC(C)(OCc1nn(Cc2ccccc2)c2ccccc12)C(=O)O [Bindarit]
[1]; bindarit 25 μg/ml
  MCP-1: 1.5 ± 0.38 ng/mL
[1]; bindarit 50 μg/ml
  MCP-1: 1.6 ± 0.18 ng/mL
[1]; bindarit 100 μg/ml
  MCP-1: 0.8 ± 0.04 ng/mL
[1]; summary of Table 1
  production of MCP-1 induced by LPS (in words): significantly reduces
[2]; bindarit 25 μg/ml
  IL-8: 30 ± 5.20 ng/mL
[2]; bindarit 50 μg/ml
  IL-8: 37 ± 5.36 ng/mL
[2]; bindarit 100 μg/ml
  IL-8: 27 ± 5.8 ng/mL
[2]; summary of Table 1
  levels of IL-8 produced (in words): without substantially influencing
[3]; IL-1 (40 ng), 5 hours
  Exudate: 1.00 ± 0.01 mL
  Leucocytes: 7.5 ± 2.21
[3]; [4]
  Monocytes: 6%
  Polymorphonucleates: 94%
[3]; carrageen (1%), 24 hours
  Exudate: 0.90 ± 0.08 mL
  Leucocytes: 4.5 ± 0.64
[3]; summary of Table 2
  number of infiltrated cells (leucocytes) (in words): significant reduction
  volume of exudate collected (in words): without presenting a reduction
[3]; summary of Table 3
  percentage of monocytes attracted in the sac (in words): reduction
